In the CheMixHub drug solubility set:

Experiment: xn = mol fraction of the nth substance listed, in the solute-free solvent

COC(=O)C1=C(C)NC(C)=C(C(=O)OCC(C)C)C1c1ccccc1[N+](=O)[O-] (configuration not stated) + CCCO + O
solubility (g/100 g solution)
Settings	278.15 K	283.15 K	288.15 K	293.15 K	298.15 K	303.15 K	308.15 K	313.15 K	318.15 K
x2 = 0.03225	0.131	0.174	0.219	0.268	0.346	0.422	0.526	0.638	0.78
x2 = 0.06974	0.532	0.647	0.806	0.96	1.16	1.37	1.62	1.92	2.23
x2 = 0.1139	0.997	1.25	1.49	1.81	2.21	2.6	3.12	3.63	4.27
x2 = 0.1666	1.41	1.75	2.12	2.56	3.1	3.6	4.37	5.07	5.97
x2 = 0.2307	1.69	2.05	2.52	3.08	3.7	4.42	5.22	6.16	7.24
x2 = 0.3103	2.02	2.49	2.99	3.59	4.3	5.12	6.03	7.01	8.15
x2 = 0.4117	2.29	2.82	3.37	4.11	4.82	5.73	6.73	7.81	9.08
x2 = 0.5454	2.47	3.06	3.68	4.45	5.28	6.23	7.23	8.39	9.79
x2 = 0.7297	2.47	3.01	3.69	4.38	5.22	6.28	7.42	8.7	10

CS(=O)(=O)c1ccc(C(O)C(CF)NC(=O)C(Cl)Cl)cc1 (configuration not stated) + CCO + O
solubility (g/100 g solution)
Settings	278.15 K	283.15 K	288.15 K	293.15 K	298.15 K	303.15 K	308.15 K	313.15 K	318.15 K
x2 = 0.04165	0.113	0.15	0.202	0.267	0.34	0.453	0.569	0.728	0.926
x2 = 0.08908	0.225	0.295	0.39	0.507	0.655	0.841	1.06	1.33	1.64
x2 = 0.1436	0.376	0.498	0.639	0.817	1.03	1.29	1.6	1.99	2.41
x2 = 0.2068	0.536	0.699	0.887	1.13	1.42	1.76	2.15	2.65	3.18
x2 = 0.2812	0.663	0.857	1.08	1.38	1.72	2.13	2.59	3.18	3.85
x2 = 0.3698	0.77	0.998	1.27	1.6	2.01	2.48	3.02	3.69	4.43
x2 = 0.4772	0.869	1.11	1.43	1.79	2.22	2.75	3.35	4.05	4.88
x2 = 0.6101	0.959	1.22	1.55	1.94	2.42	2.98	3.59	4.37	5.21
x2 = 0.7788	1.01	1.3	1.62	2.05	2.53	3.08	3.75	4.55	5.42
